Patent publication US6444251B1, “Sweetener compositions containing aspartame and aspartame derivative” (Ajinomoto Co., Inc., priority 1997, dated 2002)
Residues, ends and D or L forms follow the SMILES beside them.

What was measured:
[1] = cited from earlier work; for sweetening potency: relative to sucrose
[2] = Quality of sweetness (early taste, later taste, astringency) in comparison to sucrose; details: for early taste / later taste: determined in comparison to sucrose
Method: Early taste and late taste are determined in comparison to sucrose. For example, a sweetener, when put in the mouth, can taste sweet as early as sucrose or later than sucrose.

Row | SMILES | sweetening potency [1] | early taste [2] | later taste [2] | sweetening potency (in words) ([1]; as shown in French Patent No. 2697844) | astringency (astringent taste) [2] | quality of sweetness ([2]; compared to sucrose / single ingredients)
1 | COC(=O)[C@H](Cc1ccccc1)NC(=O)[C@@H](N)CC(=O)O [APM, aspartame] (H-Asp-Phe-OMe) | about 200 times that of sucrose | weak in early taste | strong in later taste |  |  | 
2 | COC(=O)[C@H](Cc1ccccc1)NC(=O)[C@H](CC(=O)O)NCCC(C)(C)C [N-(3,3-dimethylbutyl)-APM, N-[N-(3,3-dimethylbutyl)-L-α-aspartyl]-L-phenylalanine methyl ester] | 10,000 times that of sucrose | extremely weak | extremely strong | markedly improved sweetening potency | strong in astringency | badly balanced
